Reference: ChEMBL document CHEMBL1201862, “PubChem BioAssay data set” (2004)
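Tested at 5 concentrations; 48 h exposure; 96-well plates; endpoints linearly interpolated, else capped at highest concentration. Abbreviation: GI50, concentration required for 50% inhibition of growth.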 Calls of active or inactive are those of the source. Rule as the data show it: active = GI50 up to about 1.1 µM and inactive = higher. Square brackets hold non-standard residues; d marks the D form. Peptide text beside a SMILES is read from it. pGlu = O=C1CC[CH](C(=O)O)N1

Tests used:
Experiment in all cases: DTP human tumour cell line panel, 48 h
[1] = system: HOP-62
[2] = system: NCI-H522
[3] = system: NCI-H23
[4] = system: Malme-3M
[5] = system: RXF 393
[6] = system: HT-29
[7] = system: MCF7
[8] = system: EKVX
[9] = system: ACHN
[10] = system: OVCAR-8
[11] = system: SN12C
[12] = system: SK-MEL-28
[13] = system: SF-268
[14] = system: HCT-15
[15] = system: U-251
[16] = system: HCC 2998
[17] = system: PC-3
[18] = system: Hs-578T
[19] = system: SK-OV-3

Structure (SMILES) | GI50 [1] | GI50 [2] | GI50 [3] | GI50 [4] | GI50 [5] | GI50 [6] | GI50 [7] | GI50 [8] | GI50 [9] | GI50 [10] | GI50 [11] | GI50 [12] | GI50 [13] | GI50 [14] [µM] | GI50 [15] | GI50 [16] | GI50 [17] | GI50 [18] | GI50 [19]
Cc1n[nH]c(=O)n1/N=C\c1ccccc1 | > 100 µM (inactive) | > 100 µM (inactive) | > 100 µM (inactive) | > 100 µM (inactive) | < 0.01 µM (active) | > 100 µM (inactive) | > 100 µM (inactive) | > 100 µM (inactive) | > 100 µM (inactive) | > 100 µM (inactive) | > 100 µM (inactive) | > 100 µM (inactive) | 0.0855 µM (active) | > 100 | > 100 µM (inactive) | > 100 µM (inactive) | > 100 µM (inactive) | > 100 µM (inactive) | –
CC(=O)NC1(C)CCC(C(C)(C)NC(C)=O)CC1 (centres undefined) | > 100 µM (inactive) | – | > 100 µM (inactive) | > 100 µM (inactive) | > 100 µM (inactive) | > 100 µM (inactive) | > 100 µM (inactive) | > 100 µM (inactive) | > 100 µM (inactive) | > 100 µM (inactive) | > 100 µM (inactive) | > 100 µM (inactive) | > 100 µM (inactive) | > 100 | > 100 µM (inactive) | > 100 µM (inactive) | > 100 µM (inactive) | > 100 µM (inactive) | > 100 µM (inactive)
O=C1CSCc2sccc21 | > 100 µM (inactive) | > 100 µM (inactive) | > 100 µM (inactive) | – | < 0.01 µM (active) | > 100 µM (inactive) | > 100 µM (inactive) | > 100 µM (inactive) | > 100 µM (inactive) | > 100 µM (inactive) | > 100 µM (inactive) | > 100 µM (inactive) | > 100 µM (inactive) | > 100 | > 100 µM (inactive) | 15 µM (inactive) | > 100 µM (inactive) | > 100 µM (inactive) | > 100 µM (inactive)
CCc1nc2cc(F)ccc2[nH]c1=O | > 100 µM (inactive) | – | > 100 µM (inactive) | > 100 µM (inactive) | 27.9 µM (inactive) | > 100 µM (inactive) | > 100 µM (inactive) | 2.34 µM (inactive) | > 100 µM (inactive) | > 100 µM (inactive) | > 100 µM (inactive) | > 100 µM (inactive) | > 100 µM (inactive) | > 100 | > 100 µM (inactive) | > 100 µM (inactive) | > 100 µM (inactive) | 10.4 µM (inactive) | > 100 µM (inactive)
CC(=O)/N=C1\NC(=O)/C(=C/c2ccc(Cl)cc2Cl)N1C | 41.8 µM (inactive) | > 100 µM (inactive) | > 100 µM (inactive) | – | 75 µM (inactive) | 52 µM (inactive) | > 100 µM (inactive) | 1.02 µM (active) | > 100 µM (inactive) | 31.6 µM (inactive) | – | – | 56.6 µM (inactive) | 27.9 | 19.5 µM (inactive) | > 100 µM (inactive) | > 100 µM (inactive) | 23.1 µM (inactive) | > 100 µM (inactive)
CCN1C(c2ccccc2)=CC(c2ccccc2)(C(Cl)(Cl)Cl)C=C1c1ccccc1 | 18.9 µM (inactive) | 5.69 µM (inactive) | 8.81 µM (inactive) | 4.5 µM (inactive) | 17.5 µM (inactive) | 3.48 µM (inactive) | 5.92 µM (inactive) | 4.22 µM (inactive) | 24.9 µM (inactive) | 6.49 µM (inactive) | 45.3 µM (inactive) | 3.92 µM (inactive) | 11.5 µM (inactive) | 42.9 | 6.01 µM (inactive) | 3.04 µM (inactive) | 20.6 µM (inactive) | 25.7 µM (inactive) | –
NC(=O)C1N=NSC1NC(=O)c1ccc([N+](=O)[O-])cc1 (centres undefined) | > 100 µM (inactive) | – | 38.7 µM (inactive) | 60.3 µM (inactive) | 43.5 µM (inactive) | 36.9 µM (inactive) | 43.5 µM (inactive) | 30 µM (inactive) | 59.4 µM (inactive) | 53.6 µM (inactive) | 47.5 µM (inactive) | > 100 µM (inactive) | 54.7 µM (inactive) | 53.8 | 36.6 µM (inactive) | 37.6 µM (inactive) | 26.6 µM (inactive) | 75 µM (inactive) | 58.9 µM (inactive)
COC(=O)C(NC(=O)CNC(=O)CSc1nnc(COc2ccc(Cl)cc2)n1-c1ccccc1)C(C)C (centres undefined) | 26.5 µM (inactive) | 3.75 µM (inactive) | 20 µM (inactive) | 18.4 µM (inactive) | 18.1 µM (inactive) | 17.7 µM (inactive) | 16.1 µM (inactive) | 35.9 µM (inactive) | 18 µM (inactive) | 20.1 µM (inactive) | 18.4 µM (inactive) | 16.7 µM (inactive) | 21.3 µM (inactive) | 21.2 | 18.3 µM (inactive) | 18.5 µM (inactive) | 17.9 µM (inactive) | 22.9 µM (inactive) | –
CN(C)Cc1cc(C(=O)/C=C/c2cccc(Cl)c2)cc(CN(C)C)c1O | 3.65 µM (inactive) | 5.98 µM (inactive) | 14.3 µM (inactive) | – | 7.05 µM (inactive) | 4.18 µM (inactive) | 4.44 µM (inactive) | 7.03 µM (inactive) | 2.99 µM (inactive) | 8.55 µM (inactive) | 3.39 µM (inactive) | 4.16 µM (inactive) | 6.62 µM (inactive) | 2.84 | 2.74 µM (inactive) | 10.6 µM (inactive) | 8.99 µM (inactive) | 11.4 µM (inactive) | –
CC(NC(=O)C(Cc1c[nH]cn1)NC(=O)C1CCC(=O)N1)C(N)=O (stereo not drawn) ([pGlu]-His-Ala-NH2; configuration not given here) | > 100 µM (inactive) | – | > 100 µM (inactive) | > 100 µM (inactive) | > 100 µM (inactive) | > 100 µM (inactive) | > 100 µM (inactive) | > 100 µM (inactive) | > 100 µM (inactive) | > 100 µM (inactive) | > 100 µM (inactive) | > 100 µM (inactive) | > 100 µM (inactive) | – | > 100 µM (inactive) | > 100 µM (inactive) | > 100 µM (inactive) | > 100 µM (inactive) | > 100 µM (inactive)
C[C@@]1(c2ccccc2)O[C@@H]2C[C@H]3[C@@H]4CCC5=CC(=O)C=C[C@]5(C)[C@@]4(F)[C@@H](O)C[C@]3(C)[C@]2(C(=O)CO)O1 [AMCINAFIDE] | 15.6 µM (inactive) | 11.5 µM (inactive) | 18.1 µM (inactive) | 13.8 µM (inactive) | 20.1 µM (inactive) | 17 µM (inactive) | 13.9 µM (inactive) | 12.4 µM (inactive) | 18.1 µM (inactive) | 17.5 µM (inactive) | 12.9 µM (inactive) | 16.3 µM (inactive) | 15.1 µM (inactive) | 17.9 | 17.7 µM (inactive) | 17.3 µM (inactive) | 16 µM (inactive) | 18.7 µM (inactive) | –
